tested on: Nrf2 transcriptional activity (pARE-Luc reporter) in HepG2 cells; assay: In vitro Nrf2 transcriptional activity measurement by ARE-dependent reporter assay in HepG2 cell; format: cell-based, human; details: Homo sapiens; HepG2 cells transfected with pARE-Luc, 4 hours at 37° C.; luciferase activity of Example 1-54 or Example 17-23 at 3.75 μM defined as 100%
Experimental: Test Example 1: In Vitro Nrf2 Transcriptional Activity Measurement by ARE-Dependent Reporter Assay in HepG2 Cell
A human liver cancer-derived cell line HepG2 was transfected with pGL4.37 vector (pARE-Luc, Promega Corp.) and incubated overnight at 37° C. in a humidified atmosphere containing 5% CO2. The cells were dissociated by trypsin treatment, inoculated to a 384-well plate supplemented with a test compound, and incubated at 37° C. for 4 hours. Then, Bright-Glo Reagent (Promega Corp.) was added to the plate, and luciferase activity was measured with Envision plate reader.
Luciferase activity obtained through the action of the compound of Example 1-54 or Example 17-23 at a concentration of 3.75 μM was defined as 100%. The luciferase activity of each well was converted to a response rate (%). The dose-response curve of the compound of each Example was prepared to calculate a 50% effective concentration (EC50).

Row | SMILES | EC50 [nM]
1 | O=C(O)c1cc(F)c(-c2cccc3c2OCN(C(=O)c2c(Cl)cc(N4CCn5nccc5C4)cc2Cl)C3)cc1N1C2CCC1COC2 [Compound 1-39] | 18
2 | COC1CN(c2cc(Cl)c(C(=O)N3COc4c(cccc4-c4cc(N5C6CCC5COC6)c(C(=O)O)cc4F)C3)c(Cl)c2)CCO1 (stereo not shown) [Compound 1-40, 4-[3-[2,6-Dichloro-4-(2-methoxymorpholin-4-yl)benzoyl]-2,4-dihydro-1,3-benzoxazin-8-yl]-5-fluoro-2-(3-oxa-8-azabicyclo[3.2.1]octan-8-yl)benzoic acid] | 3
3 | O=C(O)c1cc(F)c(-c2cccc3c2OCN(C(=O)c2c(Cl)cc(N4C5CCC4COC5)cc2Cl)C3)cc1N1C2CCC1COC2 [Compound 1-41, 4-[3-[2,6-Dichloro-4-(3-oxa-8-azabicyclo[3.2.1]octan-8-yl)benzoyl]-2,4-dihydro-1,3-benzoxazin-8-yl]-5-fluoro-2-(3-oxa-8-azabicyclo[3.2.1]octan-8-yl)benzoic acid] | 2
4 | C[C@@H]1COCCN1c1cc(Cl)c(C(=O)N2COc3c(cccc3-c3cc(N4C5CCC4COC5)c(C(=O)O)cc3F)C2)c(Cl)c1 [Compound 1-42, 4-[3-[2,6-Dichloro-4-[(3R)-3-methylmorpholin-4-yl]benzoyl]-2,4-dihydro-1,3-benzoxazin-8-yl]-5-fluoro-2-(3-oxa-8-azabicyclo[3.2.1]octan-8-yl)benzoic acid] | 2.6
5 | O=C(O)c1cc(F)c(-c2cccc3c2OCN(C(=O)c2c(Cl)cc(N4C5CCCC4COC5)cc2Cl)C3)cc1N1C2CCC1COC2 [Compound 1-43, 4-[3-[2,6-Dichloro-4-(3-oxa-9-azabicyclo[3.3.1]nonan-9-yl)benzoyl]-2,4-dihydro-1,3-benzoxazin-8-yl]-5-fluoro-2-(3-oxa-8-azabicyclo[3.2.1]octan-8-yl)benzoic acid] | 1.8
6 | O=C(O)c1cc(F)c(-c2cccc3c2OCN(C(=O)c2c(Cl)cc(N4CC(F)(F)C(F)(F)C4)cc2Cl)C3)cc1N1C2CCC1COC2 [Compound 1-44, 4-[3-[2,6-Dichloro-4-(3,3,4,4-tetrafluoropyrrolidin-1-yl)benzoyl]-2,4-dihydro-1,3-benzoxazin-8-yl]-5-fluoro-2-(3-oxa-8-azabicyclo[3.2.1]octan-8-yl)benzoic acid] | 6.5
7 | CN1CCN(c2cc(Cl)c(C(=O)N3COc4c(cccc4-c4cc(N5C6CCC5COC6)c(C(=O)O)cc4F)C3)c(Cl)c2)CC(F)(F)C1 [Compound 1-45, 4-[3-[2,6-Dichloro-4-(6,6-difluoro-4-methyl-1,4-diazepan-1-yl)benzoyl]-2,4-dihydro-1,3-benzoxazin-8-yl]-5-fluoro-2-(3-oxa-8-azabicyclo[3.2.1]octan-8-yl)benzoic acid] | 3.7
8 | Cn1cc2c(n1)CN(c1cc(Cl)c(C(=O)N3COc4c(cccc4-c4cc(N5C6CCC5COC6)c(C(=O)O)cc4F)C3)c(Cl)c1)C2 [Compound 1-46, 4-[3-[2,6-Dichloro-4-(2-methyl-4,6-dihydropyrrolo[3,4-c]pyrazol-5-yl)benzoyl]-2,4-dihydro-1,3-benzoxazin-8-yl]-5-fluoro-2-(3-oxa-8-azabicyclo[3.2.1]octan-8-yl)benzoic acid] | 1.9
9 | N#CC1CC2(C1)CN(c1cc(Cl)c(C(=O)N3COc4c(cccc4-c4cc(N5C6CCC5COC6)c(C(=O)O)cc4F)C3)c(Cl)c1)C2 [Compound 1-47, 4-[3-[2,6-Dichloro-4-(6-cyano-2-azaspiro[3.3]heptan-2-yl)benzoyl]-2,4-dihydro-1,3-benzoxazin-8-yl]-5-fluoro-2-(3-oxa-8-azabicyclo[3.2.1]octan-8-yl)benzoic acid] | 12
10 | CN1CC2CN(c3cc(Cl)c(C(=O)N4COc5c(cccc5-c5cc(N6CCOCC6)c(C(=O)O)cc5F)C4)c(Cl)c3)CC2C1 (stereo not shown) [Compound 1-48, 4-[3-[2,6-Dichloro-4-(2-methyl-1,3,3a,4,6,6a-hexahydropyrrolo[3,4-c]pyrrol-5-yl)benzoyl]-2,4-dihydro-1,3-benzoxazin-8-yl]-5-fluoro-2-morpholin-4-ylbenzoic acid] | 2.3
11 | O=C(O)c1cc(F)c(-c2cccc3c2OCN(C(=O)c2c(Cl)cc(N4CCC5(CCOC5)C4)cc2Cl)C3)cc1N1CCOCC1 (stereo not shown) [Compound 1-49, 4-[3-[2,6-Dichloro-4-(2-oxa-7-azaspiro[4.4]nonan-7-yl)benzoyl]-2,4-dihydro-1,3-benzoxazin-8-yl]-5-fluoro-2-morpholin-4-ylbenzoic acid] | 1.9
12 | O=C(O)c1cc(F)c(-c2cccc3c2OCN(C(=O)c2c(Cl)cc(N4CCC4=O)cc2Cl)C3)cc1N1CCOCC1 [Compound 1-50, 4-[3-[2,6-Dichloro-4-(2-oxoazetidin-1-yl)benzoyl]-2,4-dihydro-1,3-benzoxazin-8-yl]-5-fluoro-2-morpholin-4-ylbenzoic acid] | 4.6
13 | O=C(O)c1cc(F)c(-c2cccc3c2OCN(C(=O)c2c(Cl)cc(N4CCOC4=O)cc2Cl)C3)cc1N1CCOCC1 [Compound 1-51, 4-[3-[2,6-Dichloro-4-(2-oxo-1,3-oxazolidin-3-yl)benzoyl]-2,4-dihydro-1,3-benzoxazin-8-yl]-5-fluoro-2-morpholin-4-ylbenzoic acid] | 10
14 | O=C(O)c1cc(F)c(-c2cccc3c2OCN(C(=O)c2c(Cl)cc(N4CCCC4=O)cc2Cl)C3)cc1N1CCOCC1 [Compound 1-52, 4-[3-[2,6-Dichloro-4-(2-oxopyrrolidin-1-yl)benzoyl]-2,4-dihydro-1,3-benzoxazin-8-yl]-5-fluoro-2-morpholin-4-ylbenzoic acid] | 14
15 | CS(=O)(=O)C1CN(c2cc(Cl)c(C(=O)N3COc4c(cccc4-c4cc(N5CCOCC5)c(C(=O)O)cc4F)C3)c(Cl)c2)C1 [Compound 1-53, 4-[3-[2,6-Dichloro-4-(3-methylsulfonylazetidin-1-yl)benzoyl]-2,4-dihydro-1,3-benzoxazin-8-yl]-5-fluoro-2-morpholin-4-ylbenzoic acid] | 5
16 | O=C(O)c1cc(F)c(-c2cccc3c2OCN(C(=O)c2c(Cl)cc(N4CCN(C5COC5)CC4)cc2Cl)C3)cc1N1CCOCC1 [Compound 1-55, 4-[3-[2,6-Dichloro-4-[4-(oxetan-3-yl)piperazin-1-yl]benzoyl]-2,4-dihydro-1,3-benzoxazin-8-yl]-5-fluoro-2-morpholin-4-ylbenzoic acid] | 1.5
17 | CN1CCN(c2cc(Cl)c(C(=O)N3COc4c(cccc4-c4cc(N5CCOCC5)c(C(=O)O)cc4F)C3)c(Cl)c2)CC1 [Compound 1-56] | 1.3
18 | CC(C)(O)CN1CCN(c2cc(Cl)c(C(=O)N3COc4c(cccc4-c4cc(N5CCOCC5)c(C(=O)O)cc4F)C3)c(Cl)c2)CC1 [Compound 1-57, 4-[3-[2,6-Dichloro-4-[4-(2-hydroxy-2-methylpropyl)piperazin-1-yl]benzoyl]-2,4-dihydro-1,3-benzoxazin-8-yl]-5-fluoro-2-morpholin-4-ylbenzoic acid] | 1.4
19 | O=C(O)c1cc(F)c(-c2cccc3c2OCN(C(=O)c2c(Cl)cc(N4CCN(CCO)CC4)cc2Cl)C3)cc1N1CCOCC1 [Compound 1-58, 4-[3-[2,6-Dichloro-4-[4-(2-hydroxyethyl)piperazin-1-yl]benzoyl]-2,4-dihydro-1,3-benzoxazin-8-yl]-5-fluoro-2-morpholin-4-ylbenzoic acid] | 4.2
20 | O=C(O)c1cc(F)c(-c2cccc3c2OCN(C(=O)c2c(Cl)cc(N4CCOCC4)cc2Cl)C3)cc1N1CCOCC1 [Compound 1-59, 4-[3-(2,6-Dichloro-4-morpholin-4-ylbenzoyl)-2,4-dihydro-1,3-benzoxazin-8-yl]-5-fluoro-2-morpholin-4-ylbenzoic acid] | 1.2
21 | CN1CCC(N2CCN(c3cc(Cl)c(C(=O)N4COc5c(cccc5-c5cc(N6CCOCC6)c(C(=O)O)cc5F)C4)c(Cl)c3)CC2)CC1 [Compound 1-60, 4-[3-[2,6-Dichloro-4-[4-(1-methylpiperidin-4-yl)piperazin-1-yl]benzoyl]-2,4-dihydro-1,3-benzoxazin-8-yl]-5-fluoro-2-morpholin-4-ylbenzoic acid] | 4.2
22 | O=C(O)c1ccc(-c2cccc3c2OCN(C(=O)c2c(Cl)cc(N4CC5(CCCO5)C4)cc2Cl)C3)cc1N1C2CCC1COC2 [Compound 1-61, 4-[3-[2,6-Dichloro-4-(5-oxa-2-azaspiro[3.4]octan-2-yl)benzoyl]-2,4-dihydro-1,3-benzoxazin-8-yl]-2-(3-oxa-8-azabicyclo[3.2.1]octan-8-yl)benzoic acid] | 2.6
23 | CC(C)(O)CN1CCN(c2cc(Cl)c(C(=O)N3COc4c(cccc4-c4ccc(C(=O)O)c(N5CCOCC5)c4)C3)c(Cl)c2)CC1 [Compound 1-62, 4-[3-[2,6-Dichloro-4-[4-(2-hydroxy-2-methylpropyl)piperazin-1-yl)benzoyl]-2,4-dihydro-1,3-benzoxazin-8-yl]-2-morpholin-4-ylbenzoic acid] | 3.2
24 | CN1CCC(N2CCN(c3cc(Cl)c(C(=O)N4COc5c(cccc5-c5ccc(C(=O)O)c(N6CCOCC6)c5)C4)c(Cl)c3)CC2)CC1 [Compound 1-63, 4-[3-[2,6-Dichloro-4-[4-(1-methylpiperidin-4-yl)piperazin-1-yl]benzoyl]-2,4-dihydro-1,3-benzoxazin-8-yl]-2-morpholin-4-ylbenzoic acid] | 2.1
25 | CN1CCN(c2cc(Cl)c(C(=O)N3COc4c(cccc4-c4ccc(C(=O)O)c(N5CCOCC5)c4)C3)c(Cl)c2)CC1 [Compound 1-64, 4-[3-[2,6-Dichloro-4-(4-methylpiperazin-1-yl)benzoyl]-2,4-dihydro-1,3-benzoxazin-8-yl]-2-morpholin-4-ylbenzoic acid] | 3

From patent US20250171457A1, “NITROGEN-CONTAINING HETEROCYCLIC COMPOUND HAVING NRF2 ACTIVATION EFFECT” (CHUGAI SEIYAKU KABUSHIKI KAISHA, priority 2022, published 2025)
